Legend:
TRPV4 [1] = molecular target: TRPV4 (Rattus norvegicus, UniProt Q9ERZ8); assay: Ca++ imaging in primary astrocytes, GSK101 stimulation; assay type: cell-based; conditions: 5 nM GSK101
Experimental: (§1) FIGS. 28A-28B: Compound 16-8 inhibits TRPV4 in I° cells more potently than GSK205. […] Inset: Chondrocytes responding to activation with GSK101, fura-2 Ca++ imaging; right-hand image taken at 5 sec after GSK101 application. […] (FIG. 28B) 1° (primary) astrocytes (rat); dose-response comparison between 16-8 and GSK205 in response to 5 nM GSK101. Inset: Astrocytes responding to activation with GSK101; right-hand image taken at 5 sec after GSK101 application (mean±SEM, n=5 independent expts, 200 cells/expt; *p<0.05, t-test).
Astrocyte cultures were conducted following established protocols^64-66. Astrocytes were prepared from Sprague Dawley rat embryos (E18). Briefly, the isolated cortices were minced, and then incubated with trypsin and DNase. Dissociated cells were suspended in Dulbeccco's Modified Eagle's Medium (DMEM) supplemented with 10% fetal calf serum and penicillin/streptomycin (100 U/ml and 100 μg/ml, respectively). Thereafter, cell sus-pensions were plated in 75 cm^2 tissue culture flasks (10×10^6 cells/flask) which were pre-coated with poly-L-lysine (10 μg/ml). The cells were maintained in a […] incubator at 37° C.

TRPV4 [2] = molecular target: T1, TRPV4 (Sus scrofa, UniProt B3VP30); assay: Ca++ imaging in primary articular chondrocytes, GSK101 stimulation; assay type: cell-based; conditions: primary articular chondrocytes (pig), 5 nM GSK101
T1 construct: primary cells, which express functional and biologically-relevant TRPV4 without directed over-expression of the channel; endogenous in cells; host or cells: primary porcine articular chondrocytes (femoral condyles)
T1 sequence (B3VP30 1-871): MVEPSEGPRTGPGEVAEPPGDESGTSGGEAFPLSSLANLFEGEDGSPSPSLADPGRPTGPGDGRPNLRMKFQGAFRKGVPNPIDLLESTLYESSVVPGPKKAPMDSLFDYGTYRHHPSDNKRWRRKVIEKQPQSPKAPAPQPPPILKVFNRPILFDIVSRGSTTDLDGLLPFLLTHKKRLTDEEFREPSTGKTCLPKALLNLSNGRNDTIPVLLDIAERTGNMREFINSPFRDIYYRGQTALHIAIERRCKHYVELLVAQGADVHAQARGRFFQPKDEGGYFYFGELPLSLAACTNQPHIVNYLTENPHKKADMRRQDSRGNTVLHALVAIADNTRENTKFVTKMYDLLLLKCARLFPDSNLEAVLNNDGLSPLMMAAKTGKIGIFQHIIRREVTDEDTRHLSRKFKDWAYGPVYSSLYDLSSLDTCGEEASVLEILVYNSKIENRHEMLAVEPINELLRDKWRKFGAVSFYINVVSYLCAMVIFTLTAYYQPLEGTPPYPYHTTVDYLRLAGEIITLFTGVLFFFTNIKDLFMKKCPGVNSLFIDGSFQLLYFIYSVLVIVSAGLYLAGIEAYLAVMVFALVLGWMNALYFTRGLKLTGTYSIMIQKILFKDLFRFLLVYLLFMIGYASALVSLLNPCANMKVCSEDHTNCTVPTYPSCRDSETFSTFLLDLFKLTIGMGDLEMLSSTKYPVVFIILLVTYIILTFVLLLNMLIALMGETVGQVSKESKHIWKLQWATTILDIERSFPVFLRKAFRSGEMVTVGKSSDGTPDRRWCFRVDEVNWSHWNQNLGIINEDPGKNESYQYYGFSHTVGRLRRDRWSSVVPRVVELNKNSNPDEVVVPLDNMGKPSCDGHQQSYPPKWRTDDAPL
Experimental: as §1
Primary porcine chondrocytes derived from femoral condyles of skeletally mature pigs were cultured and subjected to Ca++ imaging as described previously^19,32,62,63.

[3] = Stability of compound in plasma; conditions: 4 h incubation in plasma at 37° C.
Excerpt: Results are expressed as means±SEM, n=6 mice/experimental group for all experiments.

[4] = UVB permeation of foot-pad skin; set-up: species or system mouse; conditions: topically applied, vs vehicle
Experimental: The UV LED was powered with 20 mA of current, resulting in 500 μW of optical power in a circular focal spot 1.5 mm in diameter, with 70% of the total flux in a 0.5 mm beam radius. The UV optical power transmitted through the sample was detected by a Hamamatsu S127-66BR UV detector, and the output of the photodetector was measured using a Keithley 236 source measure unit. Next, the foot-pad epidermis of a mouse was measured for UV transmission by placing it on a quartz coverslip and exposure to the UV beam. The vehicle-control group was treated with the alcohol and glycerol solution only. Another control group consisted of a commercially-available SPF100 preparation sunscreen in form of a cream, which was applied similar to the vehicle-control. The data for the GSK205 and sunscreen was normalized to this control data.

[5] = tested on: primary mouse keratinocytes (1° MK); assay: UVB-evoked Ca++ signaling in primary mouse keratinocytes (fluo-4); assay type: cell-based
Experimental: Ca++ imaging of 1° MK was conducted following routine procedures. For UVB stimulation, a customized device was built. The system comprised a printed circuit board for electrical interconnects and mechanical support and an ultraviolet light-emitting diode (UV LED).
The operating wavelength was 295 nm (FIG. 2A), with a full-width half-max of 12 nm. The optical power was 500 mW. The focal point was aimed at the plane of the upper surface of the quartz coverslip, which was used to minimize UV absorption along the optical path towards the cells (FIG. 2A-C). The optical intensity at the focal point was estimated to be 150 mW/mm^2.
(§2) Ca++ imaging of mouse 1° MK in response to chemical activation of TRPV4 was conducted after loading with 2 μM fura2-AM, following a ratiometric Ca2+ imaging protocol with 340/380 nm […] for dual excitation. Ratios of emissions were acquired at 0.5 Hz. ΔR/R0 was determined as the fraction of the increase of a given ratio over baseline ratio, divided by baseline ratio. For stimulation of cells with UVB, where fura-2 was not suitable because of the proximity of stimulation with 340/380 nm and 295 nm, 2 μM fluo4-AM was used instead. Ca++ imaging was carried out at 488 nm excitation, acquisition of emissions at 0.5 Hz, expressed as ΔF/F0. In the custom-built UV optical system, UV LEDs were capped with a ball lens, a transparent optical window in the shape of a hemispherical lens (FIG. 2B). The LED output optical beam focused at 15-20 mm from the lens, with a spot diameter of approximately 1.5-2.0 mm (FIG. 2C). […] The thermal equilibration stage was set for physiological temperature.

TRPV4 [6] = molecular target: T2, TRPV4 (Mus musculus, UniProt Q9EPK8); assay: Ca++ transients in primary mouse keratinocytes on chemical activation of TRPV4 (GSK101, 4α-PDD); assay type: cell-based; conditions: 1° MK, 5 nM GSK101; GSK205 20 μM
T2 construct: endogenous in cells; host or cells: primary mouse epidermal keratinocytes (1° MK)
T2 sequence (Q9EPK8 whole entry): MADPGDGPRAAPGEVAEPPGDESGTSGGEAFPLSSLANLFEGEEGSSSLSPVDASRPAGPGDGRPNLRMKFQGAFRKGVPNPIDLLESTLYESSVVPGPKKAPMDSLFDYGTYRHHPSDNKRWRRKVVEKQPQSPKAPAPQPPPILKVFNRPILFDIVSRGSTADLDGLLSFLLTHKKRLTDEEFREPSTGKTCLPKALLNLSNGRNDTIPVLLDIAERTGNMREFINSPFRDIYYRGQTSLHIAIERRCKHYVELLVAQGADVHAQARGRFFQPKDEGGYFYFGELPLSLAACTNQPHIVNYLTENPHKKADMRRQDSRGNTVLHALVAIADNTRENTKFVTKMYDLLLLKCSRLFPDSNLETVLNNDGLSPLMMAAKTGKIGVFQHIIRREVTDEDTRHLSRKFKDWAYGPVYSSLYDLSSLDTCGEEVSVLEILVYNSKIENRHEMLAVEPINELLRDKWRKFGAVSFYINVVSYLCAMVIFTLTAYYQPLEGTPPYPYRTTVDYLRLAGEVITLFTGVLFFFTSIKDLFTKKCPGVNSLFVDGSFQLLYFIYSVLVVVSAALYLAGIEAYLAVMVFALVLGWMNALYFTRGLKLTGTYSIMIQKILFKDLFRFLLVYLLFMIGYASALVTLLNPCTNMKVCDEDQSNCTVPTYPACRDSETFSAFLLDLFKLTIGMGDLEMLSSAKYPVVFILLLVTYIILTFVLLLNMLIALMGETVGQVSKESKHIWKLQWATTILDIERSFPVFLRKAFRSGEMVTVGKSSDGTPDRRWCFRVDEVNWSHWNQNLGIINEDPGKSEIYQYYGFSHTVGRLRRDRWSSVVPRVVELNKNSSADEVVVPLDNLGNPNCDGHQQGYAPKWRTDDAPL
Experimental: as §2, with “temperature. We confirmed the non-thermal nature of UVB stimulation using the customized 295 nm LED device in a dedicated experiment (FIG. 2D), thus confirming the specific modality of stimulation as UVB.” for “temperature.”

[7] = tested on: trigeminal formalin-evoked pain behavior; conditions: dose-dependent, intradermal injection; cited from earlier work

TRPV4 (Rattus norvegicus, UniProt Q9ERZ8), sequence (Q9ERZ8 whole entry): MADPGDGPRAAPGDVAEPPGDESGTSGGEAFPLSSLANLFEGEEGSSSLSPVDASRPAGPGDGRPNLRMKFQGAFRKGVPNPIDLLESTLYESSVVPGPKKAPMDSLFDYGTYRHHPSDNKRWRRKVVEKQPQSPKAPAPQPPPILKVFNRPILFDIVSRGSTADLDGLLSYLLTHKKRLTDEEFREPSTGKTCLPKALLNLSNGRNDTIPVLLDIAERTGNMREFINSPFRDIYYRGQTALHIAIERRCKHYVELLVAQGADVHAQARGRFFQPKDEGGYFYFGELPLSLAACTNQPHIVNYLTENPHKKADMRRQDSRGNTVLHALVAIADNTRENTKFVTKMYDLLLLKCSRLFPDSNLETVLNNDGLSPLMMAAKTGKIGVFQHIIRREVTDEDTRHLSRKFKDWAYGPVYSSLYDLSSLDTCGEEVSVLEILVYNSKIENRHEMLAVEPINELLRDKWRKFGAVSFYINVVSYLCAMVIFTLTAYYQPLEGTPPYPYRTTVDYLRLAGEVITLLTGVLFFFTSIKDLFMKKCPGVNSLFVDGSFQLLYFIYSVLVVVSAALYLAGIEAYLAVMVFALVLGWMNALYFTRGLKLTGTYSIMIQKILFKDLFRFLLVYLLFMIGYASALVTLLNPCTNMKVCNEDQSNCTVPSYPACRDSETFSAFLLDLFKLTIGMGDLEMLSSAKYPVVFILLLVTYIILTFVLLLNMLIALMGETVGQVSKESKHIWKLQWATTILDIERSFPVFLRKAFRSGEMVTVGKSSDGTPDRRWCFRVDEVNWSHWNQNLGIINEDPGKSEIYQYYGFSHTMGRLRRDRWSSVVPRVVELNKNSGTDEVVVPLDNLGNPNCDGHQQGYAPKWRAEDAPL

CN(CCc1ccc(Nc2nc(-c3ccccc3)cs2)cc1)Cc1ccccc1 [Compound 16-8]
potency versus GSK205, dose-response of peak ΔCa++ (TRPV4 [1]): significantly increased potency | potency versus GSK205, dose-response of peak ΔCa++ (TRPV4 [2]): significantly more potent than GSK205

CCN(CCc1ccc(Nc2nc(-c3ccccc3)cs2)cc1)Cc1ccccc1 [Compound 16-19]
stability in plasma [3]: no loss of detectable compound

CN(CCc1ccc(Nc2nc(-c3cccnc3)cs2)cc1)Cc1ccccc1 [GSK205]
UVB permeation of paw-pad skin [4]: equal UVB permeation | UVB-evoked Ca++ signal ([5]; GSK205 20 μM): strongly down-regulated | ET1-augmented UVB-induced Ca++ transients ([5]; co-exposure to ET1): greatly diminished | GSK101-evoked Ca++ transient (TRPV4 [6]): completely blocked | trigeminal formalin-evoked pain behavior, earlier study [7]: effective attenuation

Reference: patent US11564911B2, “Small molecule dual-inhibitors of TRPV4 and TRPA1 for sanitizing and anesthetizing” (Duke University, priority 2016, dated 2023)
